In article PMC11814485, “Screening of homing and tissue-penetrating peptides by microdialysis and in vivo phage display” (Life Science Alliance, 2025):

test system: diabetic skin wounds; experiment: Homing of FAM-peptides to skin wounds in diabetic mice; assay type: in vivo, mouse (BKS(D)-Lepr^db/JOrlRj); settings: 1.5 mg/kg systemically, 150 min, day 7 wound, anti-FAM staining, one animal with two wounds per group
Text: Next, we wanted to study the utility of the newly identified peptides as vehicles for targeting diabetic skin wounds. Compromised angiogenesis in diabetic wounds leads to deficient granulation tissue formation and poses an important hindrance to systemic drug delivery. BALB/cJRj and diabetic male BKS(D)-Lepr^db/JOrlRj mice were wounded and systemically dosed with fluorophore-labeled peptides 7 d after the skin wounding. For all tested peptides, we observed peptide accumulation in the granulation tissue where angiogenesis takes place (Fig S6).
Figure S6. Microdialysis-captured peptides home to skin wounds in diabetic mice. […] Full-thickness wounds 6 mm in diameter were cut in the back skin of 14-wk-old male diabetic mice. After 7 d, 1.5 mg/kg of each peptide or PBS was injected systemically. The CAR peptide was used as a control. The peptide circulated for 150 min before the vasculature was perfused. The wounds were fixed with 4% PFA in PBS, and microscopic sections were stained with anti-FAM and hematoxylin. (A) Images of entire wounds. (B) Magnifications of areas marked in (A) with anti-CD31 staining of the adjacent sections. (A, B) Scale bars are 500 μm for (A) and 125 μm for (B). Images are representative of one animal with two wounds in each group.
Male BALB/cJRj and diabetic male BKS(D)-Lepr^db/JOrlRj mice were used for the peptide homing experiment. The BALB/cJRj mice were 8 wk old and weighed 24–28 g. […]
After 24-h (or 4 h for eyeballs) fixation in 4% PFA, the tissues were rinsed in 70% EtOH and embedded in paraffin. To avoid autofluorescence, the peptides were detected by staining the sections with rabbit anti-FITC/-FAM (71-1900; Thermo Fisher Scientific, 1:400 BALB/cJRj and C57BL/6Rj or 1:100 BKS(D)-Lepr^db/JOrlRj) in Dako antibody diluent (Agilent) and Biocare Medical Rabbit on Rodent (RMR622H; Biocare Medical) with XM-Factor (XMF963C; Biocare Medical) as described previously ([Robinson et al, 2010]; [Urakami et al, 2011]; [Toba et al, 2014]; [Pemmari, et al, 2020b]). […]

Row | Sequence | homing to skin wounds in diabetic mice
1 | CDDYQQISC [FAM-labeled synthetic peptide …] | home and penetrate to the granulation tissue
2 | CPKKHHLDC [FAM-labeled synthetic peptide …] | home and penetrate to the granulation tissue
3 | CYHDTYPNC [FAM-labeled synthetic peptide …] | home and penetrate to the granulation tissue
